What is called IC50 is the concentration that gives 50% inhibition.

Read-outs that look alike come from different tables or passages of the source.

Assay [1] has as its target AktK (Homo sapiens, UniProt P31749). The assay can be described thus: Luciferase-coupled chemiluminescence kinase assay (ATP consumption). The assay is classed as biochemical. The conditions noted are these: read-out: AKT-1 IC50. Summed up:
(§1)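 Activity is read as ATP depletion: luciferase-luciferin reagent added after a 3 h ambient-temperature kinase reaction, with total ATP use limited to 25-60%. Before ATP addition, 2.5-5 nM kinase and compound were preincubated 30 min in Tris pH 7.5/MgCl2/TX-100/DTT buffer; […].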

In assay [2] the target is p70S6K (Homo sapiens, UniProt P23443). Described as above. The format is biochemical. In short, it runs like this:
as §1

Chain of p70S6K (P23443 whole entry): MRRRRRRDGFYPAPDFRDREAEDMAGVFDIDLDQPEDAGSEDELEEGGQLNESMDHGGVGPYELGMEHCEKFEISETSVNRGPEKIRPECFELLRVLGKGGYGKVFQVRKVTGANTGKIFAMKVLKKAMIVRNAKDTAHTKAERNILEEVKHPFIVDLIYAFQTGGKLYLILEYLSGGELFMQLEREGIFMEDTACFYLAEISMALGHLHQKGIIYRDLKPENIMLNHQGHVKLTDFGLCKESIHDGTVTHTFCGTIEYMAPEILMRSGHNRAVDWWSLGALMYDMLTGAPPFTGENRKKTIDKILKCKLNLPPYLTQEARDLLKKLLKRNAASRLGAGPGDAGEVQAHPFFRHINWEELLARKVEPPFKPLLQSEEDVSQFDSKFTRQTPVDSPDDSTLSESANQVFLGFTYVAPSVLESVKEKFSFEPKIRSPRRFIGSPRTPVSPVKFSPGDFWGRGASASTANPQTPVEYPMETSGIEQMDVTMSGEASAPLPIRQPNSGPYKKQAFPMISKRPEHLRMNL
Chain of AktK (P31749 whole entry): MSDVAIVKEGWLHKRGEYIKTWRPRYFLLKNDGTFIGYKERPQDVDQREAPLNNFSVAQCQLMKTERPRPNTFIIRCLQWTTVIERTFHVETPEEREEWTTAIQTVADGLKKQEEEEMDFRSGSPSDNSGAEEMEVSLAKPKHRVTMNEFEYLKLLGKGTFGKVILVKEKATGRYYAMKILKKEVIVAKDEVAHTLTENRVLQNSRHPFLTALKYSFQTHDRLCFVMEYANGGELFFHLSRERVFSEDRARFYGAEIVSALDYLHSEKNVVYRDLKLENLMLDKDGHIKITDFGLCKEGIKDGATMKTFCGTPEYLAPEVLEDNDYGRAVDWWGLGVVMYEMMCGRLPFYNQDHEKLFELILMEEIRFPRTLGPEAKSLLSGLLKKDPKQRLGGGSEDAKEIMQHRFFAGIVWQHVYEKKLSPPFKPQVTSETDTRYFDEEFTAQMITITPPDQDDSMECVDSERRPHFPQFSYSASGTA

On to `CCN(CC)CC#Cc1n[nH]c2ncnc(N3CCN(c4cc(Cl)ccc4C)CC3)c12` [Entry 392, 3-{4-[4-(5-chloro-2-methylphenyl)piperazin-1-yl]-1H-pyrazolo[3,4-d]pyrimidin-3-yl}-N,N-diethylprop-2-yn-1-amine], for which the IC50 is 1000 to 10000 nM in assay [1] and less than 100 nM in assay [2].

With `Cc1ccc(Cl)cc1N1CCN(c2ncnc3[nH]nc(C#CCO)c23)CC1` [Entry 393, 3-{4-[4-(5-chloro-2-methylphenyl)piperazin-1-yl]-1H-pyrazolo[3,4-d]pyrimidin-3-yl}prop-2-yn-1-ol], the IC50 in assay [1] is 100 to 1000 nM; in assay [2], less than 100 nM.

As to `Cc1ccc(Cl)cc1N1CCN(c2ncnc3[nH]nc(CC4CCNCC4)c23)CC1` [Entry 394, 4-[4-(5-chloro-2-methylphenyl)piperazin-1-yl]-3-(piperidin-4-ylmethyl)-1H-pyrazolo[3,4-d]pyrimidine], the half-inhibitory concentration (IC50) in assay [1] and in assay [2] was 1000 to 10000 nM each time.

Turning to `Cc1ccc(Cl)cc1N1CCN(c2ncnc3[nH]nc(C=C4C[C@@H]5CN(C(=O)OCc6ccccc6)C[C@@H]5C4)c23)CC1` [Entry 395, phenylmethyl (3aR,6aS)-5-({4-[4-(5-chloro-2-methylphenyl)piperazin-1-yl]-1H-pyrazolo[3,4-d]pyrimidin-3-yl}methylidene)hexahydrocyclo-penta[c]pyrrole-2(1H)-carboxylate], the half-inhibitory concentration (IC50) in assay [1] and in assay [2] was 1000 to 10000 nM throughout.

Consider `Cc1ccc(Cl)cc1N1CCN(c2ncnc3[nH]nc(/C=C4/C[C@H]5CNC[C@H]5C4)c23)CC1` [Entry 396, 4-[4-(5-chloro-2-methylphenyl)piperazin-1-yl]-3-[(E)-(3aR,6aS)-hexahydrocyclopenta[c]pyrrol-5(1H)-ylidenemethyl]-1H-pyrazolo[3,4-d]pyrimidine], for which the half-inhibitory concentration (IC50) in assay [1] and in assay [2] was 1000 to 10000 nM throughout.

Consider `Cc1ccc(Cl)cc1N1CCN(c2ncnc3[nH]nc(C#CCN4CCCC4)c23)CC1` [Entry 397, 4-[4-(5-chloro-2-methylphenyl)piperazin-1-yl]-3-(3-pyrrolidin-1-ylprop-1-yn-1-yl)-1H-pyrazolo[3,4-d]pyrimidine], for which the IC50 in assay [1] was in the range of 1000 to 10000 nM; in assay [2] it was 100 to 1000 nM.

As for `Cc1ccc(Cl)cc1N1CCN(c2ncnc3[nH]nc(C#CCN4CCN(C)CC4)c23)CC1` [Entry 398, 4-[4-(5-chloro-2-methylphenyl)piperazin-1-yl]-3-[3-(4-methylpiperazin-1-yl)prop-1-yn-1-yl]-1H-pyrazolo[3,4-d]pyrimidine], the IC50 in assay [1] was 1000 to 10000 nM; in assay [2], 100 to 1000 nM.

Take `CCN(CC)CCCc1n[nH]c2ncnc(N3CCN(c4cc(Cl)ccc4C)CC3)c12` [Entry 399, 3-{4-[4-(5-chloro-2-methylphenyl)piperazin-1-yl]-1H-pyrazolo[3,4-d]pyrimidin-3-yl}-N,N-diethylpropan-1-amine]: the IC50 in assay [1] and in assay [2] was 1000 to 10000 nM throughout.

`Cc1ccc(Cl)cc1N1CCN(c2ncnc3[nH]nc(C4=CCNCC4)c23)CC1` [Entry 401, 4-[4-(5-chloro-2-methylphenyl)piperazin-1-yl]-3-(1,2,3,6-tetrahydropyridin-4-yl)-1H-pyrazolo[3,4-d]pyrimidine]: the values for the concentration for half-maximal inhibition (IC50) in assay [1] and in assay [2] were 1000 to 10000 nM and less than 100 nM, respectively.

Regarding `CCc1n[nH]c2ncnc(N3CCN(c4cc(Cl)cc(CCCN(CC)CC)c4C)CC3)c12` [Entry 402, 3-{5-chloro-3-[4-(3-ethyl-1H-pyrazolo[3,4-d]pyrimidin-4-yl)piperazin-1-yl]-2-methylphenyl}-N,N-diethylpropan-1-amine], the figures for the IC50 in assay [1] and in assay [2] were 100 to 1000 nM and less than 100 nM, respectively.

With `CCc1n[nH]c2ncnc(N3CCN(c4cc(Cl)cc(CCCN5CCCC5)c4C)CC3)c12` [Entry 403, 4-{4-[5-chloro-2-methyl-3-(3-pyrrolidin-1-ylpropyl)phenyl]piperazin-1-yl}-3-ethyl-1H-pyrazolo[3,4-d]pyrimidine], the IC50 was 100 to 1000 nM in assay [1] and less than 100 nM in assay [2].

For “N′-{3-[4-(3-bromo-1H-pyrazolo[3,4-d]pyrimidin-4-yl)piperazin-1-yl]-2-methyl-5-[(2-methyl-propyl)oxy]phenyl}-N,N-diethylethane-1,2-diamine [Entry 185]”, the IC50 in assay [1] (Table 1, class symbols per key) was less than 100 nM; in assay [2] (Table 1, class symbols per key) it was less than 100 nM.

The values above are taken from patent US8076338B2, “Kinase modulators and methods of use” (Exelixis, Inc., priority 2004, dated 2011).
